Experimental data taken from patent US6989375B2, “Enhanced expression of transgenes” (priority 1996, dated 2006).

How the values were obtained:
H1299 cells [1] = test: Quantitation of β-gal gene expression by ONPG assay at increasing MOI; assay type: cell-based, human; conditions: for Enhancement index: CDDP 0.062 μg/ml×24 h; for β-gal activity (ONPG): CDDP = cells treated 0.062 μg/ml×24 h, infected 2 days later, Ad/CMV/β-gal = control cells without CDDP
Experimental: (§1) Quantitation of β-gal Gene Expression: Adenoviral infection was performed 2 days after exposure to CDDP (0.062 μg/ml×24 hours), with cell extracts being obtained 24 hours later and quantitatively assayed for the expression of the β-galactosidase gene using O-nitrophenyl β-d-galactoside (ONPG) as a substrate (MacGregor et al., 1987). The magnitude of CDDP-induced enhancement of gene expression at a given MOI was determined by calculating the enhancement index: [formula] In Vivo CDDP-Induced Enhancement of β-gal Gene Expression
(§2) To determine if prior incubation of target cells with CDDP would result in an increase in the ability of cells to take up gene-delivering vectors or an increase in the expression of successfully delivered genes, β-gal gene expression was quantitated in H1299 and H460 cell lines treated with CDDP and then infected with Ad/CMV/β-gal at increasing MOI's. If CDDP mediates an enhancement of adenovirus uptake as compared to non-treated controls, then there should be a proportional increase in enhancement indices with increasing MOI's. […] Similarly, β-gal gene expression in CDDP-treated H460 cells increased from 0.28±0.06 to 12.2±2.1 U/mg protein, as compared to β-gal gene expression in control H460 cells of 0.056±0.016 to 7.6±1.8 U/mg protein. The enhancement indices in H460 cells, therefore, decreased from a value of 5 at an MOI of 5, to a value of 1.6 at an MOI of 100 (FIG. 2B). This observation implies that CDDP induces an increase in the expression of successfully delivered genes and not an increase in adenovirus uptake.

H460 cells = test: as above; assay type: cell-based, human; conditions: for β-gal gene expression (ONPG): CDDP = treated cells, Ad/CMV/β-gal = control cells without CDDP
Experimental: as §1, §2

H1299 cells [2] = test: β-gal expression after gene delivery with Ad/PLL/DNA complex or lipofectamine in CDDP-treated cells; assay type: cell-based, human; conditions: 48 hrs after CDDP removal
Experimental: Gene Transfer Vectors: The recombinant adenovirus carrying the Escherichia coli β-galactosidase gene under the control of the human cytomegalovirus enhancer/promotor (Ad/CMV/β-gal) or the replication defective adenovirus were propagated on 293 cells and purified and stored using techniques previously reported (Nguyen et al., 1996). Viral titer was determined by UV spectrophotometric analysis (Nguyen et al., 1996a; 1996b). To determine if the CDDP-induced enhancement of gene expression would be dependent on the method of gene delivery, two other gene delivery systems were used: the Ad/PLL/DNA complex (Nguyen et al., 1996a; 1996b) and cationic liposomes (Lipofectamine, Gibco BRL). CDDP (0.062 μg/ml)-treated H1299 cells were incubated with either gene delivery system carrying a plasmid that contained the β-gal gene under the control of the CMV enhancer/promotor (CMV/β-gal) 48 hours after drug removal. Plasmid DNA was isolated by the alkaline lysis technique and purified by using Qiagen DNA purification kits (Qiagen, Chatsworth, Calif.). Plasmid containing liposome preparations and gene transfer were performed according to the manufacturer's protocol. The conjugated Ad/PLL/DNA complex was constructed and used to deliver the β-gal gene to H1299 and H460 cells as described elsewhere (Nguyen et al., 1996a; 1996b).

H1299 cells [3] = test: Cell proliferation assay (daily cell counts); assay type: cell-based, human; conditions: for Increased inhibition of tumor proliferation compared to cells transfected with Adv/CMV/p53 only: CDDP 48 hrs prior to Adv/CMV/p53 (MOI 5)
Experimental: H1299 cells were exposed to CDDP (0.062 μg/ml of medium) for 24 hrs. Cells were then washed twice with PBS, trypsinized and seeded in 6-well plates (10^5 cells/well). Forty eight hours later, cells were infected with Ad/CMV/p53 at the multiplicity of infection (MOI) of 5. Daily cell counts were performed for 5 days following transfection to study the tumor suppression effect of the combination of sequential CDDP and adenovirus-mediated p53 gene transfer. Controls consisted of untreated cells or cells exposed to CDDP only, cells transfected with Ad/CMV/p53 only and cells transfected with d1312 (similar MOI) with or without prior CDDP treatment.

[4] = test system: p53 protein in H1299 cells; test: Western blot analysis of p53 protein expression with densitometry; assay type: cell-based, human; conditions: CDDP = prior CDDP exposure, Adv/CMV/p53 = without prior CDDP
Experimental: H1299 cells were infected with Ad/CMV/p53 (MOI=1) 48 hrs after CDDP exposure. Cells were then harvested at 6, 12, 24, 36 and 48 hrs after transfection for Western blot analysis of p53 protein expression, as described elsewhere (Diller et al., 1990). Unexposed cells similarly transfected with Ad/CMV/p53 were used as controls. The human NSCLC cell line H322 which overexpresses mutant p53 protein was used as a positive control. Relative quantities of exogenous p53 protein were determined by densitometer (Molecular Dynamics, Sunnyvale, Calif.).

[5] = test system: CDDP-resistant ovarian carcinoma cells (2008); conditions: CDDP four to six weeks prior (in vitro) or once one week prior (in vivo); cited from earlier work

In the case of N.N.[Cl][Pt][Cl] [CDDP, cis-dichlorodimminocisplatin], the Enhancement index (H1299 cells [1]; MOI 5) is reported as 3, the “β-gal activity (ONPG)” value (H1299 cells [1]; MOI 5) is reported as 2.2±0.40 U/mg protein and the Enhancement index (H1299 cells [1]; MOI 100) is reported as 2.5. The “β-gal activity (ONPG)” value (H1299 cells [1]; MOI 100) was 42.0±2.6 U/mg protein, the “β-gal gene expression (ONPG)” value (H460 cells; MOI 5) was 0.28±0.06 U/mg protein and the “β-gal gene expression (ONPG)” value (H460 cells; MOI 100) was 12.2±2.1 U/mg protein. For the same compound, the Enhancement index (H460 cells; MOI of 5) was 5, the Enhancement index (H460 cells; MOI of 100) was 1.6 and the “β-gal gene expressing cells compared with adenovirus-mediated gene transfer” value (H1299 cells [2]; cationic phospholipid lipofectamine carrying CMV/β-gal plasmid) was “same magnitude”. For the same compound, the “β-gal gene expressing cells compared with adenovirus-mediated gene transfer” value (H1299 cells [2]; conjugated Ad/PLL/DNA complex carrying CMV/β-gal plasmid) was “same magnitude”, the “Effect on cell growth in vitro” value (H1299 cells [3]; CDDP 0.0625 μg/ml for 24 hrs, alone) was “no effect on cell growth” and the “Increased inhibition of tumor proliferation compared to cells transfected with Adv/CMV/p53 only” value (H1299 cells [3]; day 3 after p53 transfer) was 61%. For the same compound, the “Increased inhibition of tumor proliferation compared to cells transfected with Adv/CMV/p53 only” value (H1299 cells [3]; day 5 after p53 transfer) was 55%, the “Relative level of p53 protein (normalized for β-actin)” value ([4]; 12 hrs after Adv/CMV/p53 transfection (MOI=1)) was 0.73 and the “Relative level of p53 protein (normalized for β-actin)” value ([4]; 24 hrs after Adv/CMV/p53 transfection (MOI=1)) was 1.39. The “Relative level of p53 protein (normalized for β-actin)” value ([4]; 36 hrs after Adv/CMV/p53 transfection (MOI=1)) was 1.49, the “Relative level of p53 protein (normalized for β-actin)” value ([4]; 48 hrs after Adv/CMV/p53 transfection (MOI=1)) was 1.20 and the “Gene transduction after CDDP exposure prior to liposome-mediated gene transfer” value [5] was “enhanced gene transduction”.
